# Assay results as given in US20040038855A1 (priority 1999, published 2004).
# Structures can show the parent of a compound that is named as a salt. Where two headings read alike, the source gives them in different places.
# Assays:
# human NPY1 receptor = molecular target: T1, human NPY1 receptor (Homo sapiens, UniProt P25929); assay: Binding affinity at the human NPY1 receptor
# T1 construct: expressed in transfected cells
# T1 sequence (P25929 1-384): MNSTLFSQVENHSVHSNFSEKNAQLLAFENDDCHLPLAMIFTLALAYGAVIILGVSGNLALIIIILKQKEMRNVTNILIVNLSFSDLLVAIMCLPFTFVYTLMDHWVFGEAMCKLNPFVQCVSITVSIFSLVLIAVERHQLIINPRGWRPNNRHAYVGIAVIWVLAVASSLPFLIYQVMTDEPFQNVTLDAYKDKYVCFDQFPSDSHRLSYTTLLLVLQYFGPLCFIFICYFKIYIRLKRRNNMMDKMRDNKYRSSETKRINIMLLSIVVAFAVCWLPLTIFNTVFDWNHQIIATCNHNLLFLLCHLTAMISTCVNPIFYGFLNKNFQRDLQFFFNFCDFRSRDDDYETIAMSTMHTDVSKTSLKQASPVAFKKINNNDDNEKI
# Text: (§1) The design of such compounds can be optimized by determining their binding affinity at the recombinant MCH1, NPY1, NPY2, Gal1, Gal2, Gal3, and 5HT2C receptors. The methods to obtain the cDNA of the receptor, express said receptors in heterologous systems, and carry out assays to determine binding affinity are described in the following publications: human NPY1 (Larhammar et al., 1992), human NPY5 (U.S. Pat. No. 5,602,024, the disclosure of which is hereby incorporated by reference in its entirety into this application), human Gall (Habert-Ortoli et al., 1994), human Gal2 (Smith et al., 1997), human Gal3 (Smith et al., 1998), and rat 5HT2C (Julius et al., 1988). Additionally, the compounds would optimally not bind at the following receptors due to possible side effects: human H1 histamine and human H2 histamine receptors; human alpha-1A adrenergic, human alpha-1D adrenergic, human alpha-2A adrenergic, human alpha-2B adrenergic, and human alpha-2C adrenergic receptors; human dopamine D1, D2, D3, D4, and D5 receptors; the β-adrenoceptor; and the human 5HT1A, human 5HT1B, human 5HT1D, human 5HT1E, human 5HT1F, human 5HT2A, rat 5HT2C, human 5HT4, human 5HT6, and human 5HT7 receptors.
# human NPY5 receptor = molecular target: T2, human NPY5 receptor (Homo sapiens, UniProt Q15761); assay: Binding affinity at the human NPY5 receptor
# T2 construct: expressed in transfected cells
# T2 sequence (Q15761 1-445): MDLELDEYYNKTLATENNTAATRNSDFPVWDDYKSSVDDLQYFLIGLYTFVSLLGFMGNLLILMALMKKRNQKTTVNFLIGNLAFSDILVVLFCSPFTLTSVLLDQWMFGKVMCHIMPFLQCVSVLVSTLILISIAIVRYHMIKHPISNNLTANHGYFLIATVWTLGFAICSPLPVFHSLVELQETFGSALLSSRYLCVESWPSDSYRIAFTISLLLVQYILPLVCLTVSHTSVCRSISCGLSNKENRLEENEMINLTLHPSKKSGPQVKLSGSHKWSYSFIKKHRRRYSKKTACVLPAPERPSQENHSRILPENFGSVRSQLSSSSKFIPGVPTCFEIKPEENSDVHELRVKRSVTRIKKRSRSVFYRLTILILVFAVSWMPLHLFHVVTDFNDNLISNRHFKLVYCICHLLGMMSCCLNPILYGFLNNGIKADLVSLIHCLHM
# Text: as §1
# human GALR2 receptor = molecular target: T3, human GALR2 receptor (Homo sapiens, UniProt O43603); assay: Binding affinity at the human GALR2 receptor
# T3 construct: expressed in transfected cells
# T3 sequence (O43603 1-387): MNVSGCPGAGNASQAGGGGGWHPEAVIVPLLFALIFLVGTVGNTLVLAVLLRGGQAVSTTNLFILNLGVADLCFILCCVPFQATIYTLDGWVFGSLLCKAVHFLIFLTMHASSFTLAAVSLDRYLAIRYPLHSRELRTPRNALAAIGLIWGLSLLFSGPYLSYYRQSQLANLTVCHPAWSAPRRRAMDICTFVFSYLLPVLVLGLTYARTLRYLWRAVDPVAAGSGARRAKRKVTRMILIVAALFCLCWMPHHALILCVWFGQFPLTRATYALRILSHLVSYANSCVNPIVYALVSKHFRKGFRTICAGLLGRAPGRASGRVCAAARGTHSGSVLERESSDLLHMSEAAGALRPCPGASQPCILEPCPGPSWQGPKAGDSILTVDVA
# human GALR3 receptor = molecular target: T4, human GALR3 receptor (Homo sapiens, UniProt O60755); assay: Binding affinity at the human GALR3 receptor
# T4 construct: expressed in transfected cells
# T4 sequence (O60755 1-368): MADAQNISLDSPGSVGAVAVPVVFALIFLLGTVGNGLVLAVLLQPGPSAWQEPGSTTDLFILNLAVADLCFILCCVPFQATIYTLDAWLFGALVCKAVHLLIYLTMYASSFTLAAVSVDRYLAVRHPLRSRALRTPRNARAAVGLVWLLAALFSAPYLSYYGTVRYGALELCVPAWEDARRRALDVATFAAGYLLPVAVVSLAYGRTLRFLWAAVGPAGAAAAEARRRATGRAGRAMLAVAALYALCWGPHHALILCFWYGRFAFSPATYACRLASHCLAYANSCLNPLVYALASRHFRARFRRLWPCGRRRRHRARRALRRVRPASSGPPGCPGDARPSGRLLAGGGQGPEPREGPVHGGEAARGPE
# human MCH1 receptor = human MCH1 receptor (Homo sapiens, UniProt Q99705); assay: Competition binding, membrane preparations of A293 cells expressing the human MCH1 receptor, [3H] Compound 10 as radioligand; design: expressed in transfected cells
# Description: TRITIATED METHYL (4S)-3-{[(3-{4-[3-(ACETYLAMINO)PHENYL]-1-[…]}PROPYL)AMINO]CARBONYL}-4-(3,4-DIFLUOROPHENYL)-6-(METHOXYMETHYL)-2-OXO-1,2,3,4-TETRAHYDRO-5-PYRIMIDINECARBOXYLATE ([^3H] COMPOUND 10): This radiochemical synthesis was carried out by Amersham Pharmacia Biotech, Cardiff, Wales. A methanolic solution of methyl (4S)-3-({[3-(4-[3-(acetylamino)phenyl]-3,6-dihydro-1(2H)pyridinyl)propyl]amino}carbonyl)-4-(3,4-difluorophenyl)-6-(methoxymethyl)-2-oxo-1,2,3,4-tetrahydro-5-pyrimidinecarboxylate was exposed to tritium gas at 1 atmosphere pressure in the presence of 5% palladium on carbon with stirring overnight to give the tritiated methyl (4S)-3-{[(3-{4-[3-(acetylamino)phenyl]-1-piperidinyl}propyl)amino]carbonyl}-4-(3,4-difluorophenyl)-6-(methoxymethyl)-2-oxo-1,2,3,4-tetrahydro-5-pyrimidinecarboxylate ((+)-isomer) After purification by reverse phase HPLC (Hypersil ODS, 4.6×100 mm, methanol:H2O:Et3N 10:90:1 to 100:0:1 in 15 min at 1.0 mL/min, with radiochemical and UV detection), this product was used as a radioligand in the MCH1 binding assays. The same procedure was carried out with H2 gas in place of ^3H2 to afford the non-radioactive version of Compound 10.
# [1] = Table 3b, A293 cell membranes, [3H] Compound 10, read-out: hMCH1* Ki
# Sequence of human MCH1 receptor (Q99705 whole entry): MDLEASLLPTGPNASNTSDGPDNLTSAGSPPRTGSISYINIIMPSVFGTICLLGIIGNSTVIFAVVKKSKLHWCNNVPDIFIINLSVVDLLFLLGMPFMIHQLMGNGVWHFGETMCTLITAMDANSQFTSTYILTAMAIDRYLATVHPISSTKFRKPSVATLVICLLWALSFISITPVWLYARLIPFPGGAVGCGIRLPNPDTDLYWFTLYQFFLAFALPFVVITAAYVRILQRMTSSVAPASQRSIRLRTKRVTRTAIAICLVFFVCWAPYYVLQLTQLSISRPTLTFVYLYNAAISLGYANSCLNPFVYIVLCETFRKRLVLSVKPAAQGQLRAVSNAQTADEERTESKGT
Compound,"Ki (human NPY1 receptor; Table 3a, read-out: hMPY1 Ki) [µM]","Ki (human NPY1 receptor; Table 3b, read-out: hNPY1 Ki) [µM]","Ki (human NPY5 receptor; Table 3a, read-out: hNPY5 Ki) [µM]","Ki (human NPY5 receptor; Table 3b, read-out: hNPY5 Ki) [µM]","Ki (human GALR2 receptor; Table 3a, read-out: hGALR2 Ki) [µM]","Ki (human GALR2 receptor; Table 3b, read-out: hGALR2 Ki) [µM]","Ki (human GALR3 receptor; Table 3a, read-out: hGALR3 Ki) [µM]","Ki (human GALR3 receptor; Table 3b, read-out: hGALR3 Ki) [µM]",Ki (human MCH1 receptor; [1]) [nM],Ki (human NPY1 receptor) [µM],Ki (human NPY5 receptor) [µM],"Ki (human NPY5 receptor; read-out: hNPY5 Ki, Table 3b) [µM]",Ki (human GALR2 receptor) [µM],"Ki (human GALR2 receptor; read-out: hGALR2 Ki, Table 3b) [µM]",Ki (human GALR3 receptor) [µM],"Ki (human GALR3 receptor; read-out: hGALR3 Ki, Table 3b) [µM]",Ki (human MCH1 receptor) [nM],further results
"2-(3,4-DIFLUOROPHENYL)4,5-DIHYDROIMIDAZOLE-1-CARBOXYLIC ACID {3-[4-PHENYL-4-(4-BROMO-5-METHYLTHIOPNEN-2-YL)]-PROPYL}-AMIDE [Example 19]",> 50,> 50,> 50,> 50,> 50,> 50,> 50,> 50,3,,,,,,,,,"Ki (human MCH1 receptor; Table 3e, read-out: hMCH1 Ki): 3 nM; Ki (human MCH1 receptor; Table 3d, read-out: hMCH1 Ki): 3 nM"
"COC(=O)C1=C(C)NC(=O)N(C(=O)NCCCN2CCC3(CC2)OCc2ccccc23)C1c1ccc2nonc2c1 (single isomer, unassigned) [Example 18, HYDROCHLORIDE]",,,,,,,,,,> 50,> 50,> 50,> 50,> 50,> 50,> 50,4,"Ki (human NPY1 receptor; read-out: hNPY1 Ki, Table 3b): > 50 µM"
"CCC1=C(C(=O)O)C(c2ccc(F)c(F)c2)N(C(=O)NCCCN2CCC3(CC2)OCc2ccccc23)C(=O)N1 (single isomer, unassigned; (+)) [Example 4, (+)-1,2,3,6-TETRAHYDRO-1-1N-[4-(BENZO-4′,5′(H)FURAN)PIPERIDIN-1-YL]PROPYL}-CARBOXAMIDO-4-ETHYL-6-(3,4-DIFLUOROPHENYL)-2-OXO-PYRIMIDINE-5 CARBOXYLIC ACID HYDROCHLORIDE]",> 50,> 50,> 50,> 50,> 50,> 50,> 50,> 50,131,,,,,,,,,
"COCC1=C(C(=O)OC)C(c2ccc(F)c(F)c2)N(C(=O)NCCCN2CCC(c3cccc(NC(C)=O)c3)CC2)C(=O)N1 (single isomer, unassigned; (-)) [Example 1, (−)-1,2,3,6-TETRAHYDRO-1-{N-[4-(3,-ACETAMIDO)-PHENYLPIPERIDIN-1-YL]PROPYL}CARBOXAMIDO-4-METHOXYMETHYL-6-(3,4-DIFLUORO-PHENYL)-2-OXOPYRIMIDINE-5-CARBOXYLIC ACID METHYL ESTER]",> 50,> 50,> 50,> 50,> 50,> 50,> 50,> 50,40,,,,,,,,,
CCCCN(CCCC)c1ccc(CN2CCC(CNC(=O)N3C(=O)NC(C)=C(C(=O)OC)C3c3ccc4nonc4c3)CC2)cc1 (stereo not shown) [Example 6],6.67,6.67,4.74,4.74,14.9,14.9,21.1,21.1,463,,,,,,,,,
"COCC1=C(C(=O)OC)[C@H](c2ccc(F)c(F)c2)N(C(=O)NCCCN2CCC(c3cccc(NC(C)=O)c3)CC2)C(=O)N1 [Example 10, (+)-1,2,3,6-TETRAHYDRO-1-{N-[4-(3,-ACETAMIDO)-PHENYLPIPERIDIN-1-YL]PROPYL}CARBOXAMIDO-4-METHOXYMETHYL-6-(3,4-DIFLUORO-PHENYL)-2-OXOPYRIMIDINE-5-CARBOXYLIC ACID METHYL ESTER]",> 50,> 50,> 50,> 50,> 50,> 50,> 50,> 50,0.08,,,,,,,,,
"CCCCN(CCCC)c1ccc(CNC[C@H]2CC[C@H](NC(=O)c3cccc4ccccc34)CC2)cc1 [Example 13, N1-[4-([4-(DIBUTYLAMINO)BENZYL]AMINOMETHYL)CYCLOHEXYL]-1-NAPHTH-AMIDE]",9.6,9.6,> 50,> 50,4.73,4.73,5.98,5.98,171,,,,,,,,,
"COC(=O)C1=C(C)NC(=O)N(C(=O)NCCCN2CCC3(CC2)OCc2ccccc23)C1c1ccc(F)c(F)c1 (stereo not shown) [Example 20, 4-(3,4-DIFLUORPHENYL)-6-METHYL-2-OXO-3-{[3-(4-SPIRO[ISOBENZOFURAN-1(3H),4′-PIPERIDINE]PROPYL}-1,2,3,4-TETRAHYDROPYRIMIDINE-5-CARBOXYLIC ACID METHYL ESTER]",,,,,,,,,,27.1,> 50,> 50,> 50,> 50,> 50,> 50,6,"Ki (human NPY1 receptor; read-out: hMPY1 Ki, Table 3a): 27.1 µM; Ki (human MCH1 receptor; read-out: hMCH1 Ki, Table 3e): 6 nM; Ki (human MCH1 receptor; read-out: hMCH1 Ki, Table 3d): 6 nM"
O=C(CCCN1CCC(O)(c2ccc(Cl)cc2)CC1)c1ccc(Cl)cc1 [Example 29],,,,,,,,,,> 50,46.1,46.1,> 50,> 50,> 50,> 50,350,"Ki (human NPY1 receptor; read-out: hNPY1 Ki, Table 3b): > 50 µM"
